Entries after “also recorded” stand apart in the source; their conditions may differ.
What was measured:
microorganisms [1] = test: Targeting peptide binding to target microorganisms (Tables 3, 10, 12); settings: microorganism(s) the targeting peptide binds; binding in aqueous buffers varied with peptide solubility, preferably 1x PBS
microorganisms [2] = test: Morphology, biofilm and growth disrupting peptides (Table 5); format: cell-based; design: key: A: Peptide aggregates; B: Less hyphal formation; Clumps; Diffuse clumps and small polyps; F: Diffuse growth; H: Thin; I: Growth inhibition; Microcolony formation; Rippled; Small polyps; Thick; W: Halo formation on top, microlonies on bottom
Excerpt: In certain embodiments peptides that induce alterations in phenotype or other biological activities can also be used as antimicrobial effector moieties.

microorganisms [3] = test: Peptide activities: targeting/binding, antimicrobial, growth or phenotype altering (Tables 7, 8); format: cell-based; settings: peptides having multiple activities

Substance | Target(s) (microorganisms [1]) | Organism, effect (microorganisms [2]; S. pneumoniae) | Activities (microorganisms [3]) | Organism, effect (microorganisms [2]; MRSA) | Organism, effect (microorganisms [2]; S. epidermidis) | Organism, effect (microorganisms [2]; E. coli) | Organism, effect (microorganisms [2]; M. luteus) | Organism, effect (microorganisms [2]; P. aeruginosa) | Organism, effect (microorganisms [2]; S. mutans) | Organism, effect (microorganisms [2]; P. gingivalis) | Organism, effect (microorganisms [2]; F. nucleatum)
PF-757: peptide having multiple activities (PQAISSVQQNA; Peptide with targeting and/or antimicrobial activity) | M. luteus and C. albicans and MRSA | S. pneumoniae (H) | G B |  |  |  |  |  |  |  | 
PF-760: peptide having multiple activities (DHITLDDYEIHDGFNFELYYG; Peptide with targeting and/or antimicrobial activity) | S. epidermidis; also recorded: M. luteus | S. pneumoniae (C) | G B | MRSA (M) | S. epidermidis (M) |  |  |  |  |  | 
PF-761: peptide having multiple activities (SKFELVNYASGCSCGADCKCASETECKCASKK; Peptide with targeting and/or antimicrobial activity) | S. epidermidis and M. luteus and P. mirabilis and P. aeruginosa and C. albicans and MRSA and S. pneumoniae and E. faecalis | S. pneumoniae (C) | G B | MRSA (D) | S. epidermidis (C) | E. coli (C) | M. luteus (C) | P. aeruginosa (C) | S. mutans (D) |  | 
PF-762: peptide having multiple activities (PAPAPSAPAPAPEQPEQPA; Peptide with targeting and/or antimicrobial activity) | M. luteus; also recorded: C. albicans | S. pneumoniae (H) | G B |  |  |  |  |  |  |  | 
PF-764: peptide having multiple activities (GYFEPGKRD; Peptide with targeting and/or antimicrobial activity) | S. epidermidis and M. luteus and C. albicans and MRSA and S. pneumoniae and E. faecalis and C. jeikeium | S. pneumoniae (H) | G B | MRSA (D) |  |  |  |  |  |  | 
PF-776: peptide having multiple activities (VSILLYLSATIILPNVLRLLVARAIIVRV; Peptide with targeting and/or antimicrobial activity) | S. epidermidis and M. luteus and P. mirabilis and C. albicans and MRSA and S. pneumoniae and E. faecalis | S. pneumoniae (C) | G B | MRSA (D) | S. epidermidis (D) | E. coli (C) | M. luteus (C) |  | S. mutans (D) |  | 
PF-C052: peptide having multiple activities (SRFRNGV; Peptide with targeting and/or antimicrobial activity) | A. naeslundii; also recorded: F. nucleatum; also recorded: S. mutans |  | G B |  |  |  |  |  |  | P. gingivalis (H) | 
PF-C055: peptide having multiple activities (YNLSIYIYFLHTITIAGLITLPFII; Peptide with targeting and/or antimicrobial activity) | A. naeslundii; also recorded: F. nucleatum; also recorded: P. gingivalis; also recorded: S. mutans |  | G B |  |  |  |  |  | S. mutans (I) |  | F. nucleatum (T)
PF-C057: peptide having multiple activities (YFWWYWVQDCIPYKNNEVWLELSNNMK; Peptide with targeting and/or antimicrobial activity) | A. naeslundii; also recorded: F. nucleatum; also recorded: P. gingivalis; also recorded: S. mutans |  | G B |  |  |  |  |  | S. mutans (I) |  | 
PF-C062: peptide having multiple activities (PLARATEVVATLFIICSLLLYLTR; Peptide with targeting and/or antimicrobial activity) | A. naeslundii; also recorded: F. nucleatum; also recorded: P. gingivalis; also recorded: S. mutans; also recorded: T. denticola |  | G B |  |  |  |  |  | S. mutans (I) |  | F. nucleatum (T)
PF-C064: peptide having multiple activities (DEEALEMGANLYAQFAIDFLNSKK; Peptide with targeting and/or antimicrobial activity) | A. naeslundii; also recorded: F. nucleatum; also recorded: P. gingivalis; also recorded: S. mutans; also recorded: T. denticola |  | G B |  |  |  |  |  |  |  | F. nucleatum (T)
PF-C069: peptide having multiple activities (NALMLREMQLAKNIKVEVTDVLSNKKYC; Peptide with targeting and/or antimicrobial activity) | A. naeslundii; also recorded: F. nucleatum; also recorded: P. gingivalis; also recorded: S. mutans; also recorded: T. denticola |  | G B |  |  |  |  |  |  |  | F. nucleatum (T)
PF-C071: peptide having multiple activities (QVIVKIL; Peptide with targeting and/or antimicrobial activity) | A. naeslundii; also recorded: F. nucleatum; also recorded: S. mutans |  | G B |  |  |  |  |  |  |  | F. nucleatum (T)
PF-C075: peptide having multiple activities (KALVISVFAIVFSIIFVKFFYWRDKK; Peptide with targeting and/or antimicrobial activity) | A. naeslundii; also recorded: F. nucleatum; also recorded: P. gingivalis; also recorded: S. mutans; also recorded: T. denticola |  | G B |  |  |  |  |  | S. mutans (F) | P. gingivalis (R) | F. nucleatum (T)
PF-C084: peptide having multiple activities (FFSVIFLFGLNYLICNSPLFNILR; Peptide with targeting and/or antimicrobial activity) | A. naeslundii; also recorded: F. nucleatum; also recorded: P. gingivalis; also recorded: S. mutans |  | G B |  |  |  |  |  | S. mutans (F) | P. gingivalis (R) | F. nucleatum (T)
PF-C088: peptide having multiple activities (DIANNILNSVSERLIIA; Peptide with targeting and/or antimicrobial activity) | A. naeslundii; also recorded: F. nucleatum; also recorded: P. gingivalis; also recorded: S. mutans; also recorded: T. denticola |  | G B |  |  |  |  |  | S. mutans (I) | P. gingivalis (R) | F. nucleatum (H)
PF-C131: peptide having multiple activities (chain 1 QWIVAKREIRMHIYCHISVIHVIIFFG; chain 2 QWIVAKREIRMHIYCHISVIHVIIFFG; Peptide with targeting and/or antimicrobial activity) | A. naeslundii; also recorded: F. nucleatum; also recorded: P. gingivalis; also recorded: S. mutans |  | G B |  |  |  |  |  | S. mutans (F) |  | F. nucleatum (T)

Source: patent publication US20110039763A1, “TARGETED ANTIMICROBIAL MOIETIES” (C3 JIAN, INC., priority 2009, published 2011)
